In ChEMBL document CHEMBL5360641, “4'-Ethynyl-2'-deoxy-2'-β-fluoro-2-fluoroadenosine: A Highly Potent and Orally Available Clinical Candidate for the Treatment of HIV-1 Infection” (J Med Chem, 2023):
pEC50: −log10 of the molar value.

Assays:
[1] = Apparent oral clearance in Sprague-Dawley rat at 10 mg/kg, IG measured upto 24 hrs by LC-MS/MS analysis; assay type: ADME, organism-based; settings: in vivo
[2] = AUC (0 to t) in female Sprague-Dawley rat at 10 mg/kg, IG measured at 24 hrs LC-MS/MS analysis; assay type: ADME, organism-based; design: time 24 hrs, dose 10 mg/kg, route ig; settings: in vivo, po
[3] = AUC (0 to t) in Sprague-Dawley rat at 5 mg/kg, iv measured upto 24 hrs by LC-MS/MS analysis; assay type: ADME, organism-based; design: dose 5 mg/kg, time < 24 hrs, route iv; settings: in vivo
[4] = Tmax in Sprague-Dawley rat at 5 mg/kg, IG measured upto 24 hrs by LC-MS/MS analysis; assay type: ADME, organism-based; settings: in vivo, po
[5] = Cmax in Sprague-Dawley rat at 5 mg/kg, iv measured upto 24 hrs by LC-MS/MS analysis; assay type: ADME, organism-based; design: time < 24 hrs, dose 5 mg/kg, route iv; settings: in vivo
[6] = Apparent oral clearance in Sprague-Dawley rat at 2.5 mg/kg, IG measured upto 24 hrs by LC-MS/MS analysis; assay type: ADME, organism-based; settings: in vivo
[7] = Toxicity in Sprague-Dawley rat assessed as effect on blood biochemistry at 10 to 30 mg/kg, po administered once daily for 4 weeks and measured after 24 hrs post last dose; assay type: organism-based; settings: in vivo, 696 h, dose 10-30 mg/kg
[8] = Toxicity in po dosed Sprague-Dawley rat assessed as NOAEL administered once daily for 4 weeks and measured after 24 hrs post last dose; assay type: organism-based; settings: in vivo
[9] = Acute toxicity in Sprague-Dawley rat assessed as effect on kidney damage at 500 to 2000 mg/kg, IG measured on day 15; assay type: organism-based; settings: in vivo, po, 360 h, dose 500-2000 mg/kg, time 15 day
[10] = Cmax in Sprague-Dawley rat at 2.5 mg/kg, IG measured upto 24 hrs by LC-MS/MS analysis; assay type: ADME, organism-based; design: time < 24 hrs, dose 2.5 mg/kg, route ig; settings: in vivo, po
[11] = system: Human immunodeficiency virus 1; assay: Antiviral activity against HIV1 TC-1 infected in human PBMC assessed as inhibition of viral replication by measuring reduction in p24 antigen level incubated for 3 to 7 days by ELISA analysis; assay type: functional, organism-based; settings: Human immunodeficiency virus 1, TC-1, PBMC
HEK-293T = assay: Cytotoxicity against HEK293T cells assessed as reduction in cell viability upto 100 uM MTT assay; assay type: toxicity, cell-based; settings: human
[12] = system: Human immunodeficiency virus 1; assay: Antiviral activity against HIV1 4755-5 infected in human C8166 cells assessed as inhibition of viral replication by measuring reduction in p24 antigen level incubated for 3 to 7 days by ELISA analysis; assay type: functional, organism-based; settings: Human immunodeficiency virus 1, 4755-5, C8166
[13] = system: Human immunodeficiency virus 1; assay: Antiviral activity against HIV-1 harboring protease V82F/[…] double mutant infected in human C8166 cells assessed as inhibition of viral replication by measuring reduction in p24 antigen level incubated for 3 to 7 days by ELISA analysis; assay type: functional, organism-based; settings: Human immunodeficiency virus 1, C8166
[14] = Half life in Sprague-Dawley rat at 2.5 mg/kg, IG measured upto 24 hrs by LC-MS/MS analysis; assay type: ADME, organism-based; settings: in vivo, po
[15] = Toxicity in Sprague-Dawley rat assessed as death at 10 to 30 mg/kg, po administered once daily for 4 weeks and measured after 24 hrs post last dose; assay type: organism-based; settings: in vivo, 696 h, dose 10-30 mg/kg
[16] = Cytotoxicity against HEK293T cells assessed as reduction in cell viability by MTT assay; assay type: toxicity, cell-based, HEK-293T; settings: human
[17] = Cmax in Sprague-Dawley rat at 5 mg/kg, IG measured upto 24 hrs by LC-MS/MS analysis; assay type: ADME, organism-based; design: time < 24 hrs, dose 5 mg/kg, route ig; settings: in vivo, po
[18] = Tmax in Sprague-Dawley rat at 2.5 mg/kg, IG measured upto 24 hrs by LC-MS/MS analysis; assay type: ADME, organism-based; settings: in vivo, po
[19] = Apparent oral clearance in Sprague-Dawley rat at 5 mg/kg, IG measured upto 24 hrs by LC-MS/MS analysis; assay type: ADME, organism-based; settings: in vivo
[20] = system: Human immunodeficiency virus 1; assay: Antiviral activity against HIV1 WAN infected in human PBMC assessed as inhibition of viral replication by measuring reduction in p24 antigen level incubated for 3 to 7 days by ELISA analysis; assay type: functional, organism-based; settings: Human immunodeficiency virus 1, WAN
[21] = Bioavailability in Sprague-Dawley rat at 5 mg/kg, IG measured upto 24 hrs by LC-MS/MS analysis; assay type: ADME, organism-based; settings: in vivo, po
[22] = Acute toxicity in Sprague-Dawley rat assessed as effect on spleen damage at 500 to 2000 mg/kg, IG measured on day 15; assay type: organism-based; settings: in vivo, po, 360 h, dose 500-2000 mg/kg, time 15 day
[23] = AUC (0 to t) in Sprague-Dawley rat at 10 mg/kg, IG measured upto 24 hrs by LC-MS/MS analysis; assay type: ADME, organism-based; design: dose 10 mg/kg, time < 24 hrs, route ig; settings: in vivo, po
[24] = Half life in Sprague-Dawley rat at 10 mg/kg, IG measured upto 24 hrs by LC-MS/MS analysis; assay type: ADME, organism-based; settings: in vivo, po
[25] = system: Human immunodeficiency virus 1; assay: Antiviral activity against HIV1 KIZ001 infected in human PBMC assessed as inhibition of viral replication by measuring reduction in p24 antigen level incubated for 3 to 7 days by ELISA analysis; assay type: functional, organism-based; settings: Human immunodeficiency virus 1, KIZ001, PBMC
[26] = Apparent […] clearance in Sprague-Dawley rat at 5 mg/kg, iv measured upto 24 hrs by LC-MS/MS analysis; assay type: ADME, organism-based; settings: in vivo
[27] = Acute toxicity in Sprague-Dawley rat assessed as effect on food intake at 500 to 2000 mg/kg, IG measured for 14 days; assay type: organism-based; settings: in vivo, po, 336 h, dose 500-2000 mg/kg, time 14 day
[28] = Cmax in Sprague-Dawley rat at 10 mg/kg, IG measured upto 24 hrs by LC-MS/MS analysis; assay type: ADME, organism-based; design: time < 24 hrs, dose 10 mg/kg, route ig; settings: in vivo, po
[29] = Bioavailability in Sprague-Dawley rat at 10 mg/kg, IG measured upto 24 hrs by LC-MS/MS analysis; assay type: ADME, organism-based; settings: in vivo, po
[30] = AUC (0 to t) in female Sprague-Dawley rat at 100 mg/kg, IG measured at 24 hrs LC-MS/MS analysis; assay type: ADME, organism-based; design: time 24 hrs, dose 100 mg/kg, route ig; settings: in vivo, po

Work on C#C[C@]1(CO)O[C@@H](n2cnc3c(N)nc(F)nc32)[C@@H](F)[C@@H]1O yielded a CL/F [1] of 21.2 mL/min/kg, an AUC(0-t) at 24 h [2] of 6800 ng·h/mL and an AUC(0-t) at 24 h [3] of 5290 ng·h/mL. The Tmax [4] was 0.56 h, the Cmax [5] was 10200 ng/mL and the CL/F [6] was 24.8 mL/min/kg. The Activity [7] was “Non-Toxic”, the NOAEL at 696 h [8] was 30 mg/kg and the Activity [9] was “Non-Toxic”. The Cmax [10] was 630 ng/mL, the pEC50 [11] was 8.20 and the Activity (HEK-293T) was “Non-Toxic”. It also gave a pEC50 [12] of 7.49, a pEC50 [13] of 8.17 and a half-life [14] of 2 h. For the same molecule, the Activity [15] was “Non-Toxic”, the CC50 [16] was over 100000 nM and the Cmax [17] was 1230 ng/mL. The Tmax [18] was 0.63 h, the CL/F [19] was 25 mL/min/kg and the pEC50 [20] was 7.84. For the same molecule, the bioavailability [21] was 67.5%, the Activity [22] was “Non-Toxic” and the AUC(0-t) at 24 h [23] was 8660 ng·h/mL. The half-life [24] was 2.3 h, the pEC50 [25] was 8.73 and the CL/F [26] was 16.4 mL/min/kg. For the same molecule, the Activity [27] was “Non-Toxic”, the Cmax [28] was 2110 ng/mL and the bioavailability [29] was 76.3%. For the same molecule, the AUC(0-t) at 24 h [30] was 82500 ng·h/mL.
